Read-outs that look alike come from different tables or passages of the source.
Molecular target: T1, SIRT1 (Homo sapiens, UniProt Q96EB6)
T1 sequence (Q96EB6 1-747): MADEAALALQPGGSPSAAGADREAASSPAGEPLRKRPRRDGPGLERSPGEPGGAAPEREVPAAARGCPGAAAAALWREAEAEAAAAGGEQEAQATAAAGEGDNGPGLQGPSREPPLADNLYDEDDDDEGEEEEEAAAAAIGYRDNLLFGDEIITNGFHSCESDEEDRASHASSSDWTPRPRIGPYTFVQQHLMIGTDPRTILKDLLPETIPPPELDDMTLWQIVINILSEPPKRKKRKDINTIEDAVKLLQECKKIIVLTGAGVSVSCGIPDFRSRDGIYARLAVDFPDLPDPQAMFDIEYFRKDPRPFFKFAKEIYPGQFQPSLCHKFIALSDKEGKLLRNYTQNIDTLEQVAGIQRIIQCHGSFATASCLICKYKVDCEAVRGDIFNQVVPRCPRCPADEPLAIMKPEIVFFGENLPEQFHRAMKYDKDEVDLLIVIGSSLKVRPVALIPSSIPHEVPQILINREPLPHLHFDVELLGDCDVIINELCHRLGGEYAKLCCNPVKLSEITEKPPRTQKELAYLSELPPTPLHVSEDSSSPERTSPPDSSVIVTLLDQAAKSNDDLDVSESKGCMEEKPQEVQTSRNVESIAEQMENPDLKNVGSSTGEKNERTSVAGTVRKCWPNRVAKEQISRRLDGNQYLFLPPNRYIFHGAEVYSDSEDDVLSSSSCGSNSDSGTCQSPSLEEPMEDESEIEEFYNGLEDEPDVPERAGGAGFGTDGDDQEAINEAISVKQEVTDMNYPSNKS
Assay: Mass spectrometry based SIRT1 deacetylase activation assay (acetylated p53-derived peptide substrate)
Assay type: biochemical

[1] = 0.5 μM peptide substrate, 120 μM βNAD+, 10 nM SIRT1, 25 min at 25° C.
[2] = 0.5 μM peptide substrate, 120 μM βNAD+, 10 nM SIRT1, 25 min at 25° C., read-out: EC1.5
[3] = 0.5 μM peptide substrate, 120 μM βNAD+, 10 nM SIRT1, 25 minutes at 25° C.

O=C(Nc1nccs1)c1cccc2[nH]c(-c3cc(F)cc(F)c3OCCN3CCOCC3)nc12 [Compound 585]
Fold Act. (percent maximum fold activation) [1]: B (Fold Activation <200%)
EC1.5 [2]: 1000 to 25000 nM

O=C(Nc1nccs1)c1cc(F)cc2nc(-c3ccc(Cl)cc3C(F)F)[nH]c12 [Compound 821]
EC1.5 [3]: A (EC1.5<1.0 uM)
Fold Act. (percent maximum fold activation) [3]: A (Fold activation >200%)

O=C(Nc1cccc(CN2CCOCC2)n1)c1cccc2[nH]c(-c3cccc(Cl)c3)nc12 [Compound 853]
EC1.5 [3]: A (EC1.5<1.0 uM)
Fold Act. (percent maximum fold activation) [3]: A (Fold activation >200%)

O=C(Nc1ccccn1)c1cccc2[nH]c(-c3ccc(OCC(O)CO)cc3C(F)F)nc12 (stereo not shown) [Compound 558]
Fold Act. (percent maximum fold activation) [1]: A (Fold activation >200%)
EC1.5 [2]: < 1000 nM

O=C(Nc1ccc(Cl)nn1)c1cccc2[nH]c(-c3cccc(C(F)(F)F)c3)nc12 [Compound 309]
EC1.5: C (EC1.5 >25 uM)
Fold Act. (percent maximum fold activation): B (Fold Activation <200%)

O=C(Nc1ccccn1)c1cccc2[nH]c(-c3ccc(N4CCOCC4)cc3C(F)F)nc12 [Compound 553]
Fold Act. (percent maximum fold activation) [1]: A (Fold activation >200%)
EC1.5 [2]: < 1000 nM

CN1CCN(c2cccc(-c3nc4c(C(=O)Nc5ccccn5)cccc4[nH]3)c2)CC1 [Compound 528]
Fold Act. (percent maximum fold activation) [1]: A (Fold activation >200%)
EC1.5 [2]: < 1000 nM

O=C(Nc1cccc2[nH]c(-c3cc(F)ccc3C(F)(F)F)nc12)c1cccnc1 [Compound 386]
EC1.5: B (EC1.5 1-25 uM)
Fold Act. (percent maximum fold activation): A (Fold activation >200%)

O=C(Nc1nccs1)c1cccc2[nH]c(-c3ccc(OC4CCNC4)cc3)nc12 (stereo not shown) [Compound 441]
Fold Act. (percent maximum fold activation) [1]: A (Fold activation >200%)
EC1.5 [2]: < 1000 nM

FC(F)(F)c1cc(Cl)ccc1-c1nc2c(NCc3cccnc3)cccc2[nH]1 [Compound 669]
EC1.5 [3]: C (EC1.5 >25 uM)
Fold Act. (percent maximum fold activation) [3]: B (Fold Activation <200%)

O=C(Nc1cccc(OC[C@H](O)CO)c1)c1cccc2[nH]c(-c3cc(F)ccc3C(F)F)nc12 [Compound 719]
EC1.5 [3]: A (EC1.5<1.0 uM)
Fold Act. (percent maximum fold activation) [3]: A (Fold activation >200%)

O=C(Nc1ccccn1)c1cncc2[nH]c(-c3ccc(OC[C@@H](O)CO)cc3C(F)(F)F)nc12 [Compound 760]
EC1.5 [3]: A (EC1.5<1.0 uM)
Fold Act. (percent maximum fold activation) [3]: A (Fold activation >200%)

O=C(Nc1cnccn1)c1cccc2[nH]c(-c3cccc(C(F)(F)F)c3)nc12 [Compound 203]
EC1.5: A (EC1.5<1.0 uM)
Fold Act. (percent maximum fold activation): A (Fold activation >200%)

O=C(Nc1ccc(OC[C@@H](O)CO)cc1)c1cccc2[nH]c(-c3cccc(N4CCOCC4)c3)nc12 [Compound 787]
EC1.5 [3]: A (EC1.5<1.0 uM)
Fold Act. (percent maximum fold activation) [3]: A (Fold activation >200%)

Cc1csc(-c2nc3c(C(=O)Nc4nccs4)cccc3[nH]2)n1 [Compound 292]
EC1.5: A (EC1.5<1.0 uM)
Fold Act. (percent maximum fold activation): A (Fold activation >200%)

O=C(Nc1ccc(OCC(O)CO)cc1)c1cccc2[nH]c(-c3cc(F)ccc3C(F)(F)F)nc12 (stereo not shown) [Compound 494]
Fold Act. (percent maximum fold activation) [1]: A (Fold activation >200%)
EC1.5 [2]: < 1000 nM

O=C(Nc1cccnc1)c1cccc2[nH]c(-c3ccc(-c4nnn[nH]4)cc3)nc12 [Compound 349]
EC1.5: A (EC1.5<1.0 uM)
Fold Act. (percent maximum fold activation): B (Fold Activation <200%)

O=C(Nc1ccccn1)c1cccc2[nH]c(-c3ccccc3OCCN3CC[C@@H](F)C3)nc12 [Compound 508]
Fold Act. (percent maximum fold activation) [1]: A (Fold activation >200%)
EC1.5 [2]: 1000 to 25000 nM

Cc1cc(NC(=O)c2cccc3[nH]c(-c4cccc(C(F)(F)F)c4)nc23)n(C)n1 [Compound 278]
EC1.5: B (EC1.5 1-25 uM)
Fold Act. (percent maximum fold activation): A (Fold activation >200%)

O=C(Nc1cccc(CN2CCOCC2)n1)c1cccc2[nH]c(-c3ccccc3C(F)F)nc12 [Compound 817]
EC1.5 [3]: A (EC1.5<1.0 uM)
Fold Act. (percent maximum fold activation) [3]: A (Fold activation >200%)

O=C(Nc1ccccn1)c1cccc2[nH]c(-c3ccc(OC[C@H](O)CO)cc3C(F)(F)F)nc12 [Compound 744]
EC1.5 [3]: A (EC1.5<1.0 uM)
Fold Act. (percent maximum fold activation) [3]: A (Fold activation >200%)

CS(=O)(=O)c1cccc(-c2nc3c(C(=O)Nc4cccnc4)cccc3[nH]2)c1 [Compound 404]
Fold Act. (percent maximum fold activation) [1]: A (Fold activation >200%)
EC1.5 [2]: < 1000 nM

O=C(Nc1cccc2[nH]c(-c3cccc(C(F)(F)F)c3)nc12)c1ccccn1 [Compound 333]
EC1.5: B (EC1.5 1-25 uM)
Fold Act. (percent maximum fold activation): A (Fold activation >200%)

O=C(Nc1nccs1)c1cccc2[nH]c(-c3cccnc3)nc12 [Compound 227]
EC1.5: B (EC1.5 1-25 uM)
Fold Act. (percent maximum fold activation): A (Fold activation >200%)

O=C(Nc1nccs1)c1cccc2[nH]c(-c3cc(Cl)ccc3OCCN3CCOCC3)nc12 [Compound 501]
Fold Act. (percent maximum fold activation) [1]: A (Fold activation >200%)
EC1.5 [2]: < 1000 nM

O=C(Nc1nccs1)c1cccc2[nH]c(-c3ccc(OC[C@@H](O)CO)cc3C(F)(F)F)nc12 [Compound 745]
EC1.5 [3]: A (EC1.5<1.0 uM)
Fold Act. (percent maximum fold activation) [3]: A (Fold activation >200%)

O=C(Nc1nccs1)c1cccc2[nH]c(-c3ccccc3OCCN3CC[C@H](F)C3)nc12 [Compound 509]
Fold Act. (percent maximum fold activation) [1]: B (Fold Activation <200%)
EC1.5 [2]: < 1000 nM

O=C(Nc1cccnc1)c1cccc2[nH]c(-c3ccc(N4CC[C@@H](F)C4)cc3C(F)(F)F)nc12 [Compound 575]
Fold Act. (percent maximum fold activation) [1]: A (Fold activation >200%)
EC1.5 [2]: < 1000 nM

O=C(Nc1ccc(CN2CCOCC2)nc1)c1cccc2[nH]c(-c3ccccc3C(F)(F)F)nc12 [Compound 674]
EC1.5 [3]: A (EC1.5<1.0 uM)
Fold Act. (percent maximum fold activation) [3]: A (Fold activation >200%)

O=C(Nc1nccs1)c1cccc2[nH]c(-c3cccc(N4CCOCC4)c3)nc12 [Compound 226]
EC1.5: A (EC1.5<1.0 uM)
Fold Act. (percent maximum fold activation): A (Fold activation >200%)

Cc1cnc(NC(=O)c2cccc3[nH]c(-c4ccc(Cl)cc4C(F)(F)F)nc23)s1 [Compound 346]
EC1.5: A (EC1.5<1.0 uM)
Fold Act. (percent maximum fold activation): A (Fold activation >200%)

O=C(Nc1cccc(OC[C@H](O)CO)c1)c1cccc2[nH]c(-c3ccc(F)cc3C(F)F)nc12 [Compound 717]
EC1.5 [3]: A (EC1.5<1.0 uM)
Fold Act. (percent maximum fold activation) [3]: A (Fold activation >200%)

O=C(NC1CCNCC1)c1cccc2[nH]c(-c3ccc(Cl)cc3C(F)(F)F)nc12 [Compound 453]
Fold Act. (percent maximum fold activation) [1]: B (Fold Activation <200%)
EC1.5 [2]: > 25000 nM

O=C(Nc1ccccn1)c1cccc2[nH]c(-c3ccccc3OCCN3CCCC(F)(F)C3)nc12 [Compound 612]
EC1.5 [3]: C (EC1.5 >25 uM)
Fold Act. (percent maximum fold activation) [3]: B (Fold Activation <200%)

O=C(Nc1ccccn1)c1cccc2[nH]c(-c3ccccc3OCCN3CCCC3)nc12 [Compound 472]
Fold Act. (percent maximum fold activation) [1]: B (Fold Activation <200%)
EC1.5 [2]: 1000 to 25000 nM
